Reference: patent publication US11572337B2, “Antibacterial agents: arylalkylcarboxamido phloroglucinols” (Rutgers, The State University of New Jersey, priority 2018, dated 2023)
Values after ≈ are worked out from the molar mass of the structure shown.

Tests used:
[1] = biological target: S. aureus RNA polymerase core enzyme + S. aureus σA (Staphylococcus aureus (strain NCTC 8325 / PS 47), UniProt P47768+Q2G0N5); assay: Fluorescence-detected assay of inhibition of Staphylococcus aureus RNA polymerase; assay type: biochemical; conditions: T4 N25 promoter DNA, RiboGreen fluorescence, read-out: RNAP-inhibitory activity S. aureus RNAP IC50
Description: (§1) Fluorescence-detected RNA polymerase assays with E. coli RNA polymerase were performed by a modification of the procedure of Kuhlman et al., 2004 [Kuhlman, P., Duff, H. & Galant, A. (2004) A fluorescence-based assay for multisubunit DNA-dependent RNA polymerases. Anal. Biochem. 324, 183-190]. Reaction mixtures contained […]: […] test salt, 75 nM E. coli RNA polymerase σ^70 holoenzyme, 20 nM 384 bp DNA fragment containing the bacteriophage T4 N25 promoter, 100 μM ATP, 100 μM GTP, 100 μM UTP, 100 μM CTP, 50 mM Tris-HCl, pH 8.0, 100 mM KCl, 10 mM MgCl2, 1 mM DTT, 10 μg/ml bovine serum albumin, and 5.5% glycerol. Reaction components other than DNA and NTPs were pre-incubated for 10 min at 37° C. Reactions were carried out by addition of DNA and incubation for 5 min at 37° C., followed by addition of NTPs and incubation for 60 min at 37° C. DNA was removed by addition of 1 μl 5 mM CaCl2 and 2 U DNaseI (Ambion, Inc.), followed by incubation for 90 min at 37° C. RNA was quantified by addition of 100 μI RiboGreen RNA Quantitation Reagent (Invitrogen, Inc.; 1:500 dilution in Tris-HCl, pH 8.0, 1 mM EDTA), followed by incubation for 10 min at 25° C., followed by measurement of fluorescence intensity [excitation wavelength=485 nm and emission wavelength=535 nm; QuantaMaster QM1 spectrofluorometer (PTI, Inc.)]. IC50 is defined as the concentration of inhibitor resulting in 50% inhibition of RNA polymerase activity.
Fluorescence-detected RNA polymerase assays with S. aureus RNA polymerase were performed as in Example 2.1, using reaction mixtures containing (20 μl): 0-100 nM test salt, 75 nM S. aureus RNA polymerase core enzyme, 300 nM S. aureus σ^A, 20 nM 384 bp DNA fragment containing the bacteriophage T4 N25 promoter, 100 μM ATP, 100 μM GTP, 100 μM UTP, 100 μM CTP, 40 mM Tris-HCl, pH 8.0, 80 mM NaCl, 5 mM MgCl2, 2.5 mM DTT, and 12.7% glycerol. IC50 is defined as the concentration of inhibitor resulting in 50% inhibition of RNA polymerase activity.

[2] = tested on: Staphylococcus aureus ATCC 12600; assay: Inhibition of growth of Staphylococcus aureus (spiral gradient endpoint MIC assay); assay type: cell-based; conditions: ATCC12600, Mueller-Hinton II cation-adjusted agar, 16 h at 37° C., read-out: in vitro antibacterial activity S. aureus ATCC12600 MIC
From the text: Minimum inhibitory concentrations (MICs for Staphylococcus aureus ATCC 12600 were quantified using spiral gradient endpoint assays, essentially as described [Wallace, A. and Corkill, J. (1989) Application of the spiral plating method to study antimicrobial action. J. Microbiol. Meths. 10, 303-310; Paton, J., Holt, A., and Bywater, M. (1990) Measurement of MICs of antibacterial agents by spiral gradient endpoint compared with conventional dilution methods. Int. I Exp. Clin. Chemother. 3, 31-38; Schalkowsky S. (1994) Measures of susceptibility from a spiral gradient of drug concentrations. Adv. Exp. Med. Biol. 349, 107-120]. Assays employed exponential-gradient plates containing 150 mm×4 mm Mueller-Hinton II cation-adjusted agar and 0.4-100 μg/ml of test salt. Plates were prepared using an Autoplate 4000 spiral plater (Spiral Biotech, Inc.). Saturated overnight cultures were swabbed radially onto plates, and plates were incubated for 16 h at 37° C. For each culture, the streak length was measured using a clear plastic template (Spiral Biotech, Inc.), the test-salt concentration at the streak endpoint was calculated using the program SGE (Spiral Biotech, Inc.), and the MIC was defined as the calculated test-salt concentration at the streak endpoint.

[3] = biological target: E. coli RNA polymerase σ70 holoenzyme (Escherichia coli (strain K12), UniProt P0A8T7+P0A8V2); assay: Fluorescence-detected assay of inhibition of Escherichia coli RNA polymerase; assay type: biochemical; conditions: T4 N25 promoter DNA, RiboGreen fluorescence, read-out: RNAP-inhibitory activity E. coli RNAP IC50
Description: as §1

SMILES	IC50 [1] [µM]	MIC [2] [µg/mL]	IC50 [3] [µM]
O=C(NCCc1ccc(Oc2ccc(F)cc2)cc1)c1c(O)cc(O)c(Cl)c1O [Compound 0MTK240, 3-chloro-N-(4-(4-fluorophenoxy)phenethyl)-2,4,6-trihydroxybenzamide]	15	> 40	2.1
O=C(NCCc1ccc(Oc2ccc(-c3cccnc3)cc2)cc1)c1c(O)cc(O)cc1O [Compound 0MTK267, 2,4,6-trihydroxy-N-(4-(4-(pyridin-3-yl)phenoxy)phenethyl)benzamide]	1.7	–	0.3
O=C(NCc1ccc(Oc2ccc(F)cc2)c(Cl)c1)c1c(O)cc(O)cc1O [Compound 0MTK174, N-(3-chloro-4-(4-fluorophenoxy)benzyl)-2,4,6-trihydroxybenzamide]	14	8.6 (≈ 21.3 µM)	0.41
Cc1cc(Oc2ccc(F)cc2)ccc1CNC(=O)c1c(O)cc(O)cc1O [Compound 0MTK176, N-(4-(4-fluorophenoxy)-2-methylbenzyl)-2,4,6-trihydroxybenzamide]	12	5.3 (≈ 13.8 µM)	0.39
O=C(NCCc1ccc(Oc2ccc(F)cc2)cc1)c1c(O)c(Cl)c(O)c(Cl)c1O [Compound 0MTK231, 3,5-dichloro-N-(4-(4-fluorophenoxy)phenethyl)-2,4,6-trihydroxybenzamide]	31	33 (≈ 73 µM)	8.4
O=C(NC1CC1)c1cccc(Oc2ccc(CCNC(=O)c3c(O)cc(O)cc3O)cc2)c1 [Compound 0MTK268, N-(4-(3-(cyclopropylcarbamoyl)phenoxy)phenethyl)-2,4,6-trihydroxybenzamide]	2.9	–	0.8
COc1cc(Oc2ccc(F)cc2)ccc1CNC(=O)c1c(O)cc(O)cc1O [Compound 0MTK178, N-(4-(4-fluorophenoxy)-2-methoxybenzyl)-2,4,6-trihydroxybenzamide]	18	7.8 (≈ 19.5 µM)	0.61
O=C(NCc1ccc(Cl)cc1)c1c(O)cc(O)cc1O [Compound 0MTK107, N-(4-chlorobenzyl)-2,4,6-trihydroxybenzamide]	2	> 40	0.4
Cc1ccc(Oc2ccc(CCNC(=O)c3c(O)cc(O)cc3O)cc2)cc1 [Compound 0MTK257, 2,4,6-trihydroxy-N-(4-(p-tolyloxy)phenethyl)benzamide]	11	20 (≈ 52.7 µM)	0.8
O=C(NCCc1ccc(Oc2cc(Cl)cc(Cl)c2)cc1)c1c(O)cc(O)cc1O [Compound 0MTK180, N-(4-(3,5-dichlorophenoxy)phenethyl)-2,4,6-trihydroxybenzamide]	6.6	1.8 (≈ 4.14 µM)	0.83
COc1ccc(Oc2ccc(CCNC(=O)c3c(O)cc(O)cc3O)cc2)cc1 [Compound 0MTK260, 2,4,6-trihydroxy-N-(4-(4-methoxyphenoxy)phenethyl)benzamide]	6.2	–	0.78
O=C(NCCc1ccc(Oc2cccc(Cl)c2)cc1)c1c(O)cc(O)cc1O [Compound 0MTK256, N-(4-(3-chlorophenoxy)phenethyl)-2,4,6-trihydroxybenzamide]	10	9.1 (≈ 22.8 µM)	0.65
O=C(NCCCc1ccc(Cl)cc1)c1c(O)cc(O)cc1O [Compound 0MTK204, N-(3-(4-chlorophenyl)propyl)-2,4,6-trihydroxybenzamide]	8	27 (≈ 83.9 µM)	7
O=C(NCCc1ccc(Oc2cc(Cl)cc(Cl)c2)cc1)c1c(O)cc(O)c(Cl)c1O [Compound 0MTK237, 3-chloro-N-(4-(3,5-dichlorophenoxy)phenethyl)-2,4,6-trihydroxybenzamide]	3	15 (≈ 32 µM)	0.31
O=C(NCCc1ccc(Oc2cccc(-c3ccncc3)c2)cc1)c1c(O)cc(O)cc1O [Compound 0MTK269, 2,4,6-trihydroxy-N-(4-(3-(pyridin-4-yl)phenoxy)phenethyl)benzamide]	3	–	0.7
O=C(NCc1ccc(Oc2ccc(F)cc2)cc1)c1c(O)cc(O)cc1O [Compound 0MTK154, N-(4-(4-fluorophenoxy)benzyl)-2,4,6-trihydroxybenzamide]	3.5	15 (≈ 40.6 µM)	0.42
O=C(NCCc1ccc(C(F)(F)F)cc1)c1c(O)c(Cl)c(O)c(Cl)c1O [Compound 0MTK224, 3,5-dichloro-2,4,6-trihydroxy-N-(4-(trifluoromethyl)phenethyl)benzamide]	> 100	> 40	25
O=C(NCCc1ccc(Oc2ccc(-c3ccncc3)cc2)cc1)c1c(O)cc(O)cc1O [Compound 0MTK266, 2,4,6-trihydroxy-N-(4-(4-(pyridin-4-yl)phenoxy)phenethyl)benzamide]	5.1	–	1.2
O=C(NCCc1ccc(Cl)cc1)c1c(O)c(Cl)c(O)c(Cl)c1O [Compound 0MTK221, 3,5-dichloro-N-(4-chlorophenethyl)-2,4,6-trihydroxybenzamide]	98	> 40	14
O=C(NCCc1ccc(Cl)cc1)c1c(O)cc(O)c(Cl)c1O [Compound 0MTK222, 3-chloro-N-(4-chlorophenethyl)-2,4,6-trihydroxybenzamide]	9	> 40	6.8
O=C(NCCc1ccc(C(F)(F)F)cc1)c1c(O)cc(O)cc1O [Compound 0MTK207, 2,4,6-trihydroxy-N-(4-(trifluoromethyl)phenethyl)benzamide]	13	19 (≈ 55.7 µM)	7.4
CN(CCc1ccc(Cl)cc1)C(=O)c1c(O)cc(O)cc1O [Compound 0MTK128, N-(4-chlorophenethyl)-2,4,6-trihydroxy-N-methylbenzamide]	> 100	> 20	0.97
CC(C)(CNC(=O)c1c(O)cc(O)cc1O)c1ccc(Cl)cc1 [Compound 0MTK146, N-(2-(4-chlorophenyl)-2-methylpropyl)-2,4,6-trihydroxybenzamide]	2.7	22 (≈ 65.5 µM)	0.69
O=C(NCCc1ccc(Oc2cccc(N3CCOCC3)c2)cc1)c1c(O)cc(O)cc1O [Compound 0MTK263, 2,4,6-trihydroxy-N-(4-(3-morpholinophenoxy)phenethyl)benzamide]	7.1	–	1.3
O=C(NCCc1ccc(Oc2ccncc2)cc1)c1c(O)cc(O)cc1O [Compound 0MTK265, 2,4,6-trihydroxy-N-(4-(pyridin-4-yloxy)phenethyl)benzamide]	6.4	–	1.3
O=C(NCCc1ccc(Oc2cccnc2)cc1)c1c(O)cc(O)cc1O [Compound 0MTK264, 2,4,6-trihydroxy-N-(4-(pyridin-3-yloxy)phenethyl)benzamide]	3.8	–	0.82
O=C(NCCc1ccc(Oc2ccc(N3CCOCC3)cc2)cc1)c1c(O)cc(O)cc1O [Compound 0MTK261, 2,4,6-trihydroxy-N-(4-(4-morpholinophenoxy)phenethyl)benzamide]	7.5	–	1.5
O=C(NCCc1ccc(Oc2cncnc2)cc1)c1c(O)cc(O)cc1O [Compound 0MTK262, 2,4,6-trihydroxy-N-(4-(pyrimidin-5-yloxy)phenethyl)benzamide]	7.4	–	1.5
